Experimental data taken from US12630521B2, “Arylamides and methods of use thereof” (Genzyme Corporation, priority 2019, dated 2026).

What was measured:
[1] = target: T1, CFTR (ΔF508 homozygous CF-HBE cells) (Homo sapiens, UniProt P13569, DEL508-508); assay: TECC24 AUC fold over DMSO @10 uM: CFTR-mediated transepithelial chloride transport in primary CF-HBE cells; type: cell-based; conditions: 10 μM test agent, 48 hours, forskolin-stimulated IEQ AUC divided by vehicle AUC
T1 construct: Primary human bronchial epithelial cells from a ΔF508 homozygous CF donor; host or cells: primary CF-HBE cells (ΔF508/ΔF508 donor)
T1 sequence (P13569 with tags, fused parts or gaps DEL508-508): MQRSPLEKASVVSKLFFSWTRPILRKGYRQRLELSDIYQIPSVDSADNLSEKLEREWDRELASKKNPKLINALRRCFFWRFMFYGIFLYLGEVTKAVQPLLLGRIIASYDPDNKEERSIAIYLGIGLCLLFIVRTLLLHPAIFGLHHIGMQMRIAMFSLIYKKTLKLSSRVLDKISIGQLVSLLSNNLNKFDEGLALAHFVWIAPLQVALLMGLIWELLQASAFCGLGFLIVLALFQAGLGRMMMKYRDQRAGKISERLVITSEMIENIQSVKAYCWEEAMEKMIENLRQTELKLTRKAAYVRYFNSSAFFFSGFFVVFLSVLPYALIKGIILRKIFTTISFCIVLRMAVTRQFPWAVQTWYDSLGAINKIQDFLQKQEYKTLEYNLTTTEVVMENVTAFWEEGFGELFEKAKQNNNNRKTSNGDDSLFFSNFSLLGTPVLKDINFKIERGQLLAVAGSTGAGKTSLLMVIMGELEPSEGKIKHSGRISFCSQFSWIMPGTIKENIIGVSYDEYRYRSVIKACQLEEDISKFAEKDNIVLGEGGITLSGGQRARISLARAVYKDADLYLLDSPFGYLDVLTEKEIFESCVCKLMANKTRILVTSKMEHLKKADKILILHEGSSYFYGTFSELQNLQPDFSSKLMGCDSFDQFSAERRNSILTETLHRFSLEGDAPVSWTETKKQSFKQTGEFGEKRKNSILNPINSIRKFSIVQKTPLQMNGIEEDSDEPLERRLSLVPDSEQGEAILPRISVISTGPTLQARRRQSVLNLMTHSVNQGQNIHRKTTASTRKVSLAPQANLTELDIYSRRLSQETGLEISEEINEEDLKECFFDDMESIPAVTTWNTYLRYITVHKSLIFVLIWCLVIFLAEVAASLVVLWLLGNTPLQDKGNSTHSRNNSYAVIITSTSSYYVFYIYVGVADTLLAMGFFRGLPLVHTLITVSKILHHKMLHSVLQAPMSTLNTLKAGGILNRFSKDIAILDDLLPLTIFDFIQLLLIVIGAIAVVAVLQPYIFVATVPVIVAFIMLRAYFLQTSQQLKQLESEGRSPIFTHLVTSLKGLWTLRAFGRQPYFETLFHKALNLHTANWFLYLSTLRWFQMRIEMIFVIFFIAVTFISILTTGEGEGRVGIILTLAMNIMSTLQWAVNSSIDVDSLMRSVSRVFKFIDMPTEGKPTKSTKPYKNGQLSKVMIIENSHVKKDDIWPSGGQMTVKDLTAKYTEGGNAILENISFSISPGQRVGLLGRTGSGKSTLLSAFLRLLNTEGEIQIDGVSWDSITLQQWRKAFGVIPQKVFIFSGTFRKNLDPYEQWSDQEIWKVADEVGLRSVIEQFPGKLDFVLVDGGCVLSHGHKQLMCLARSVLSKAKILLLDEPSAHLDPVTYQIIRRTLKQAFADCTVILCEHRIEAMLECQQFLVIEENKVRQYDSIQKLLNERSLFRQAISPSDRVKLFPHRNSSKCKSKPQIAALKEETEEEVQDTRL
Method in brief: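 Primary ΔF508-homozygous CF bronchial epithelial cells were exposed to test agent for 48 h at 36.5° C, then VT and TEER were recorded with benzamil (10 μM), forskolin (10 μM) stimulation and CFTR inhibitor-172 (20 μM) at the end. AUC of equivalent Cl- current between forskolin and inhibitor is expressed as fold over DMSO vehicle.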

[2] = target: T2, human Cystic Fibrosis Transmembrane Conductance Regulator (CFTR) harboring the ΔF508 mutation (Homo sapiens, UniProt P13569, DEL508-508); assay: H441 cell Emax and EC50: HRP-tagged ΔF508-CFTR cell-surface luminescence assay; type: cell-based; conditions: H441 cells expressing HRP-tagged ΔF508-CFTR, 27° C. for two nights; for EC50: 15-point dose-response; for Emax: NCI-H441, % of maximum VX809 signal
T2 construct: expressed in transfected cells; host or cells: H441 carcinoma cell line (G418 selection)
T2 sequence (P13569 with tags, fused parts or gaps DEL508-508): as above
Method in brief: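 H441 cells expressing ΔF508-CFTR with HRP fused in extracellular loop 4 (CMV promoter), ~10K cells/well, 15-point dose range 24.5 to 0.001 μM, incubated at 27° C. for two nights. Surface CFTR read by Luminata Forte luminescence; Emax as % of maximum VX809 signal, plus EC50.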

| TECC24 AUC fold over DMSO [1] | EC50 [2] | Emax [2] | SMILES |
| --- | --- | --- | --- |
| A (“A” refers to AUC @10 μM > 6) | 358 nM | 179% | CCC(C)(C)[C@H](NC(=O)c1ccc2sc(Cl)c(C)c2c1OCc1ccc(OC(F)(F)F)cc1)C(=O)O [Compound 34-1, (S)-2-(2-chloro-3-methyl-4-((4-(trifluoromethoxy)benzyl)oxy)-benzo[b]thiophene-5-carboxamido)-3,3-dimethylpentanoic acid] |
| A (“A” refers to AUC @10 μM > 6) | 1250 nM | 133% | Cc1c(Cl)sc2ccc(C(=O)N[C@H](C(=O)O)C3(C)CCC3)c(OCc3ccc(C(F)(F)F)cc3)c12 [Compound 34-2, (S)-2-(2-chloro-3-methyl-4-((4-(trifluoromethyl)benzyl)oxy)-benzo[b]thiophene-5-carboxamido)-2-(1-methylcyclobutyl)acetic acid] |
| A (“A” refers to AUC @10 μM > 6) | 406 nM | 222% | CCC(C)(C)[C@H](NC(=O)c1ccc2sc(Cl)c(C)c2c1OCc1ccc(C(F)(F)F)cc1)C(=O)O [Compound 34-3] |
| A (“A” refers to AUC @10 μM > 6) | 281 nM | 159% | Cc1c(Cl)sc2ccc(C(=O)N[C@H](C(=O)O)C(C)(C)C)c(OCc3ccc(OC(F)(F)F)cc3)c12 [Compound 34-4] |
| A (“A” refers to AUC @10 μM > 6) | 509 nM | 106% | Cc1c(Cl)sc2ccc(C(=O)N[C@H](C(=O)O)C3(C)CC3)c(OCc3ccc(OC(F)(F)F)cc3)c12 [Compound 34-5, (S)-2-(2-chloro-3-methyl-4-((4-(trifluoromethoxy)benzyl)oxy)-benzo[b]thiophene-5-carboxamido)-2-(1-methylcyclopropyl)acetic acid] |
| A (“A” refers to AUC @10 μM > 6) | 1190 nM | 155% | Cc1c(Cl)sc2ccc(C(=O)N[C@H](C(=O)O)C3(C)CCC3)c(OCc3ccc(OC(F)(F)F)cc3)c12 [Compound 34-6, (S)-2-(2-chloro-3-methyl-4-((4-(trifluoromethoxy)benzyl)oxy)-benzo[b]thiophene-5-carboxamido)-2-(1-methylcyclobutyl)acetic acid] |
| A (“A” refers to AUC @10 μM > 6) | 612 nM | 84.2% | Cc1c(Cl)sc2ccc(C(=O)N[C@H](C(=O)O)C3(C)CC3)c(OCc3ccc(C(F)(F)F)cc3)c12 [Compound 34-7, (S)-2-(2-chloro-3-methyl-4-((4-(trifluoromethyl)benzyl)oxy)-benzo[b]thiophene-5-carboxamido)-2-(1-methylcyclopropyl)acetic acid] |
| A (“A” refers to AUC @10 μM > 6) | 618 nM | 151% | Cc1c(Cl)sc2ccc(C(=O)N[C@H](C(=O)O)C(C)(C)C)c(OCc3ccc(C(F)(F)F)cc3)c12 [Compound 35-1, (2S)-2-[[2-chloro-3-methyl-4-[[4-(trifluoromethyl)phenyl]methoxy]-benzothiophene-5-carbonyl]amino]-3,3-dimethyl-butanoic acid] |
| C (“C” refers to AUC @10 μM < 4) | 470 nM | 146% | Cc1csc2ccc(C(=O)N[C@H](C(=O)O)C(C)(C)C)c(OCc3ccc(C(F)(F)F)cc3)c12 [Compound 35-2, (2S)-3,3-dimethyl-2-[[3-methyl-4-[[4-(trifluoromethyl)phenyl]methoxy]-benzothiophene-5-carbonyl]amino]butanoic acid] |
| A (“A” refers to AUC @10 μM > 6) | 662 nM | 286% | Cc1nc2c(OCc3ccc(C(F)(F)F)cc3)c(C(=O)N[C@H](C(=O)O)C(C)(C)C)ccc2s1 [Compound 35-3, (2S)-3,3-dimethyl-2-[[2-methyl-4-[[4-(trifluoromethyl)phenyl]methoxy]-1,3-benzothiazole-5-carbonyl]amino]butanoic acid] |

The next lines start with the compound.

| SMILES | TECC24 AUC fold over DMSO [1] | EC50 [2] | Emax [2] |
| --- | --- | --- | --- |
| CCc1cc2c(OCc3ccc(C(F)(F)F)cc3)c(C(=O)N[C@H](C(=O)O)C(C)(C)CC)ccc2s1 [Compound 33-27, (2S)-2-(2-ethyl-4-((4-(trifluoromethyl)benzyl)oxy)-benzo[b]thiophene-5-carboxamido)-3,3-dimethylpentanoic acid] | A (“A” refers to AUC @10 μM > 6) | 309 nM | 262% |
| CCC(C)(C)[C@H](NC(=O)c1ccc2cc(C(F)(F)F)sc2c1OCc1ccc(C(F)(F)F)cc1)C(=O)O [Compound 33-28, (2S)-3,3-dimethyl-2-(2-(trifluoromethyl)-7-((4-(trifluoromethyl)benzyl)oxy)-[b]thiophene-6-carboxamido)pentanoic acid] | A (“A” refers to AUC @10 μM > 6) | 562 nM | 130% |
| CCC(C)(C)[C@H](NC(=O)c1ccc2cc(C(F)(F)F)sc2c1OCc1ccc(OC(F)(F)F)cc1)C(=O)O [Compound 33-29, (2S)-3,3-dimethyl-2-(7-((4-(trifluoromethoxy)benzyl)oxy)-2-(trifluoromethyl)-benzo[b]thiophene-6-carboxamido)pentanoic acid] | B (“B” refers to AUC @10 μM between 4-6) | 854 nM | 152% |
| CCC(C)(C)[C@H](NC(=O)c1ccc2sc(C)cc2c1OCc1ccc(OC(F)(F)F)cc1)C(=O)O [Compound 33-30, (2S)-3,3-dimethyl-2-(2-methyl-4-((4-(trifluoromethoxy)benzyl)oxy)-benzo[b]thiophene-5-carboxamido)pentanoic acid] | A (“A” refers to AUC @10 μM > 6) | 102 nM | 263% |
| CC(C)c1cc2ccc(C(=O)N[C@H](C(=O)O)C(C)(C)C)c(OCc3ccc(C(F)(F)F)cc3)c2s1 [Compound 33-31, (2S)-2-(2-isopropyl-7-((4-(trifluoromethyl)benzyl)oxy)-benzo[b]thiophene-6-carboxamido)-3,3-dimethylbutanoic acid] | C (“C” refers to AUC @10 μM < 4) | 532 nM | 131% |
| CCC(C)(C)[C@H](NC(=O)c1ccc2cc(CCC(C)C)sc2c1OCc1ccc(C(F)(F)F)cc1)C(=O)O [Compound 33-32, (2S)-2-(2-isopentyl-7-((4-(trifluoromethyl)benzyl)oxy)-benzo[b]thiophene-6-carboxamido)-3,3-dimethylpentanoic acid] | B (“B” refers to AUC @10 μM between 4-6) | 277 nM | 168% |
| CC(C)(C)[C@H](NC(=O)c1ccc2cc(Cl)sc2c1OCc1ccc(C(F)(F)F)cc1)C(=O)O [Compound 33-33, (2S)-2-(2-chloro-7-((4-(trifluoromethyl)benzyl)oxy)-benzo[b]thiophene-6-carboxamido)-3,3-dimethylbutanoic acid] | B (“B” refers to AUC @10 μM between 4-6) | 503 nM | 177% |
| CC(C)c1cc2c(OCc3ccc(C(F)(F)F)cc3)c(C(=O)N[C@H](C(=O)O)C(C)(C)C)ccc2s1 [Compound 33-34, (2S)-2-(2-isopropyl-4-((4-(trifluoromethyl)benzyl)oxy)-benzo[b]thiophene-5-carboxamido)-3,3-dimethylbutanoic acid] | A (“A” refers to AUC @10 μM > 6) | 637 nM | 238% |
| CCC(C)(C)[C@H](NC(=O)c1ccc2sc(C(F)(F)F)cc2c1OCc1ccc(OC(F)(F)F)cc1)C(=O)O [Compound 33-35, (2S)-3,3-dimethyl-2-(4-((4-(trifluoromethoxy)benzyl)oxy)-2-(trifluoromethyl)-benzo[b]thiophene-5-carboxamido)pentanoic acid] | A (“A” refers to AUC @10 μM > 6) | 678 nM | 199% |
| CCC(C)(C)[C@H](NC(=O)c1ccc2sc(C(F)F)cc2c1OCc1ccc(C(F)(F)F)cc1)C(=O)O [Compound 33-36, (2S)-2-(2-(difluoromethyl)-4-((4-(trifluoromethyl)benzyl)oxy)-benzo[b]thiophene-5-carboxamido)-3,3-dimethylpentanoic acid] | A (“A” refers to AUC @10 μM > 6) | 750 nM | 165% |
